Experimental data as given in ChEMBL document CHEMBL1157539, “Thousands of chemical starting points for antimalarial lead identification” (Nature, 2010).

system: Plasmodium falciparum; test: GSK_TCMDC: Inhibition of Plasmodium falciparum 3D7 in whole erythrocytes, using parasite LDH activity as an index of growth.; format: functional, organism-based; conditions: Plasmodium falciparum, 3D7

SMILES | XC50 [µM]
CS(=O)(=O)CCNCc1ccc(-c2ccc3c(Nc4ccc(Cl)cc4F)ccnc3c2)o1 | 0.668
Cc1cc(N[C@@H](Cc2ccccc2)C(=O)NCCCOC(C)C)nc(NCC2CCCCC2)n1 | 0.875
O=C(Nc1cccc(C(F)(F)F)c1)c1cccc(S(=O)(=O)NC2CCCN(CC3CCCCC3)C2)c1 (configuration not stated) | 0.857
COc1cccc(C2CCCN(CCCCNC(=O)c3ccc(NC(=O)c4ccc(Cl)cc4)cc3)C2)c1 (configuration not stated) | 0.864
Cc1cc(Nc2nc(NCc3cccnc3)nc3ccccc23)n[nH]1 | 0.852
CCN(CC)CCN(Cc1ccc(-c2ccc(C(F)(F)F)cc2)cc1)C(=O)c1ccc(-c2ccc(NC(=O)OC)cc2C)cc1 | 0.929
CCS(=O)(=O)Nc1ccc2[nH]cc(C3CCN(CCC4CCN(C(=O)/C=C/c5ccc(Cl)c(Cl)c5)CC4)CC3)c2c1 | 0.534
O=C(Nc1ccc(F)cc1)NC1CCN(c2ccnc3cc(Cl)ccc23)CC1 | 0.408
Cc1cc(=NN=Cc2ccccc2Cl)c2ccc(F)cc2[nH]1 | 0.257
CC(C)(C)c1cc(C(=O)Nc2ccc(C(=N)N)cc2)c(O)c(C(C)(C)C)c1 | 0.763
CC(C)=CCN1CCC(C(=O)Nc2ccc(-c3nc4ccccc4[nH]3)cc2)CC1 | 0.908
CCOc1ccc2c(=NN=Cc3cccc(OC)c3)cc(C)[nH]c2c1 | 0.123
COc1cc2nc(N(C)C)nc(Nc3ccc(OCc4ccccc4)cc3)c2cc1OC | 0.0718
CN(CCCCNC(=O)/C=C/c1ccccc1)C1CC2(CCN(C(=O)OC(C)(C)C)CC2)c2ccccc21 (configuration not stated) | 1.14
O=C(Nc1ccc(SC(F)(F)F)cc1)Nc1ccc(Cl)c(Cl)c1 | 0.909
Cc1ccc(CN2CCCN(Cc3cccc(NC(=O)c4ccc(Cl)c(Cl)c4)c3)CC2)cc1 | 0.902
COc1ccc2c(NN=Cc3ccccc3Cl)ccnc2c1 | 0.622
Cc1ccc(NCc2cccc(F)c2)cc1S(=O)(=O)N[C@@H]1CCN(C#N)C1 | 0.785
O=C(Cc1ccccc1)NC(CCN1CCC(N(C2CC2)S(=O)(=O)c2cccc(C(F)(F)F)c2)CC1)c1ccc(Cl)c(Cl)c1 (configuration not stated) | 1.27
CN(Cc1ccccc1)C1CCCN(c2cc(NC(=O)c3ccc(F)cc3)ccn2)C1 (configuration not stated) | 0.988
Cc1ccc(NC(=O)Nc2ccccc2F)cc1-c1ccc(C(=O)Nc2ccncc2)cc1 | 0.563
CC(=NNC(S)=NCc1ccco1)c1ccccn1 | 0.254
COc1ccccc1/C=C/C(=O)N(C)C1CCN(CCCCCNC(=O)/C=C/c2ccc(Cl)c(Cl)c2)CC1 | 0.438
CCN(CC)CCNC(=O)/C(=C/C=C/c1cc2cc(Cl)c(Cl)cc2[nH]1)OC | 0.927
CC(C)NCc1ccc(-c2cccc(CN3CCC(c4ccccc4)CC3)c2)c(C(=O)NCC2CCCCC2)c1 | 0.847

SMILES | XC50 [µM]
O=S(=O)(Nc1cccc(CCN2CCC(N3CCCCC3)CC2)c1)c1ccc(Oc2ccccc2)cc1 | 0.769
NC(=O)C1Cc2ccccc2CN1CC(=O)Nc1ccccc1Sc1ccccc1 (configuration not stated) | 0.0684
C=C(C)CSc1nc2c(c(=O)n1CCc1ccccc1)C1(CCCC1)Cc1ccccc1-2 | 0.607
O=C(Nc1cccc(-c2nn3ccccc3c2-c2ccnc(Nc3cccc(-c4cnco4)c3)n2)c1)C1CCCCC1 | 0.261
N=C(N)c1cc(Br)cc(NC(=O)Nc2cc(Br)cc(C(=N)N)c2)c1 | 0.819
CC(=O)NCCCCC1NC2(C(=O)N(Cc3ccc(C(C)(C)C)cc3)c3ccccc32)C2C(=O)N(C3CCCCC3)C(=O)C12 (configuration not stated) | 0.788
COc1ccc2nccc([C@@H](O)CN3CCC(NCCOc4cccc(C(F)(F)F)c4Cl)CC3)c2c1 | 0.154
CC(CN(C)C)C(=O)Nc1ccc(-c2ccc(-c3nc4ccccc4[nH]3)s2)cc1 (configuration not stated) | 0.717
NC1(C(=O)O)Cc2ccc(Cl)cc2C1 (configuration not stated) | 0.734
CN(C)CC(=O)NCC(NCCCNc1cc(=O)c2ccccc2[nH]1)c1cc(Br)cc(Br)c1 (configuration not stated) | 1.05
Cc1ccc(NC(=O)c2ccc3ncccc3c2)cc1OC1CCN(Cc2ccc(F)cc2)CC1 | 0.944
O=[N+]([O-])c1cc(/C=N/Nc2nc3nonc3nc2Nc2ccc(F)cc2)c(Cl)cc1Cl | 0.759
Cc1cc(=O)c(-c2ccc(OCc3ccc(OC(F)(F)F)cc3)cc2)c(C)[nH]1 | 0.736
CC(C)(C)c1ccc(CN2CCC(CNC(=O)c3cc(-c4ccccc4)nc4ccccc34)CC2)cc1 | 1.02
CN1CCN(CCCN(Cc2csc(-c3ccc(CNCc4ccccc4)cc3)n2)C(=O)Nc2cccc(Cl)c2)CC1 | 0.789
CCCNCc1ccc(-c2ccc(CN(CCOC)C(=O)c3nn(-c4ccccc4)nc3C)cc2)nc1 | 0.725
COCCNCc1ncsc1-c1ccc2c(Nc3ccc(Oc4ccccc4)cc3)ccnc2c1 | 0.905
Cc1ccc(-c2nc3cc(NC(=O)c4ccc([N+](=O)[O-])o4)ccc3o2)cc1Cl | 0.16
Cc1ccc(C)c(C2CCN(CCCCNC(=O)c3ccc(NC(=O)c4ccc(Cl)cc4)cc3)CC2)c1 | 0.847
COc1cc(OC)c2c(C)cc(NCCCn3ccnc3)nc2c1 | 0.804
O=C(O)c1cc(C(F)(F)F)co1 | 0.825
O=C(Nc1cc(C(F)(F)F)cc(C(F)(F)F)c1)Nc1ccc(Cl)c(Cl)c1 | 0.24
CCC(C)CN1CCN(c2cc(NC(=O)c3cccs3)ccn2)C(C)C1 (configuration not stated) | 0.997
O=C(NC1CCN(Cc2ccccc2)CC1)c1ccc(CNC2CCN(Cc3ccccc3)CC2)cc1 | 0.872
COc1cc(-c2nc3c4ccccc4c4ccccc4c3[nH]2)cc(OC)c1OC | 0.848

SMILES | XC50 [µM]
CC(=O)Nc1ncc(C(=O)Nc2cccc(-c3cccc(-c4nc5cccc(C)c5[nH]4)c3)c2)s1 | 0.354
CCc1ccccc1N1CCN(CCCC(=O)c2ccc(NC(=O)c3cc(Cl)cc(Cl)c3)cc2)CC1 | 0.29
N=C(N)NN=Cc1c2ccccc2c(Cl)c2ccc(Cl)cc12 | 0.225
COc1cccc(CNC(=O)c2cc(CNCc3ccccc3)ccc2-c2cccc(CNCc3ccc(-c4ccccc4)cc3)c2)c1 | 0.847
CC(=O)Nc1ccc(CN2CCC(NC(=O)c3ccc(-c4ccc(N(C)C)cc4)s3)CC2)cc1 | 0.869
Oc1c(CN2CCC(Cc3ccccc3)CC2)cc(Cl)c2cccnc12 | 0.881
CCCS(=O)(=O)c1nc(S(=O)(=O)c2ccc(Cl)cc2)c(N2CCCCC2)s1 | 1.29
COc1ccc(Cl)cc1N1CCN(CCCNC(=O)c2ccc(-c3nc4cc(Cl)c(F)cc4[nH]3)cc2)CC1 | 1.06
CCOC(=O)c1ccc(NC(=O)Nc2ccc(-c3cccc(-c4nc5cccc(C)c5[nH]4)c3)cc2)cc1 | 0.145
Cc1cccc2nc(-c3ccc(-c4cccc(NC(=O)C(C)CN5CCN(C)CC5)c4)cc3)[nH]c12 (configuration not stated) | 0.739
COc1ccc(-c2ccc(NC(=O)c3cccc(F)c3)cc2)cc1CNC(C)C | 0.808
O=C(Nc1ccc(Cn2ncc(N3CCCNCC3)c(Cl)c2=O)cc1)Nc1ccc(SC(F)(F)F)cc1 | 0.529
C[C@H](Cc1ccc(Oc2ccc(C[C@@H](C)NC[C@H](O)c3cccc(Cl)c3)cc2)cc1)NC[C@H](O)c1cccc(Cl)c1 | 0.56
O=c1cc(NCCCNCc2cc(Cl)cc(Cl)c2OCc2ccccc2)[nH]c2ccccc12 | 1.03
Cc1cc(C(F)(F)F)n2nc(C(=O)N(Cc3cncn3Cc3cccc(F)c3)CC3CC3)cc2n1 | 0.742
COc1ccc(CNCc2ccc(-c3cccc(-c4nc5cc(C(F)(F)F)ccc5[nH]4)c3)cc2)cc1 | 0.151
O=C(Nc1cccc(-c2ccc(CN3CCCC3)cc2)c1)c1ccc(Cl)cc1 | 0.427
N#CCOc1c(C2CCN(CCCCNC(=O)c3ccc(-c4ccc(C(F)(F)F)cc4)cc3)CC2)ccc2c1CCCC2 | 0.762
O=C(/C=C/c1ccc(Cl)c(Cl)c1)N1CCC(CN2CCC(Cc3cc4ccccc4[nH]3)CC2)CC1 | 0.63
COc1ccc(NC(=O)Nc2ccc(-c3ccncc3)c(Cl)c2)cc1N1CCN(C)CC1 | 0.755
CCc1ccc(CN2CCC(CNC(=O)c3cc(-c4cccc(C(F)(F)F)c4)cs3)C2)cc1 (configuration not stated) | 0.753
N#Cc1cccc(C(O)CN(Cc2ccccc2)Cc2ccccc2)c1 (configuration not stated) | 1.27
CCCCCN1CCC(CNS(=O)(=O)c2ccc(C(=O)Nc3cccc(C(F)(F)F)c3)cc2)CC1 | 0.747
Cc1ccc2c(N/N=C/c3cccc([N+](=O)[O-])c3)cc(C)nc2c1 | 0.272
Cc1cc(=NN=Cc2ccc(Cl)cc2)c2cc(C(F)(F)F)ccc2[nH]1 | 0.92

SMILES | XC50 [µM]
Cc1cc(=NN=Cc2cccc(Cl)c2)c2ccccc2[nH]1 | 0.255
Cc1cccc2nc(-c3ccc(-c4ccc(CN5CCCC(O)C5)cc4)s3)[nH]c12 (configuration not stated) | 0.83
C[C@H](Nc1c(Nc2ccc3[nH]ccc3c2)c(=O)c1=O)C1CCCCC1 | 0.213
COc1ccc2ncc(F)c(CCN3CC(O)C(CNCc4ccccc4)C3)c2n1 (configuration not stated) | 0.91
CN(CCCc1c[nH]c2ccccc12)CC1CCN(C(=O)/C=C/c2ccc(Cl)c(Cl)c2)CC1 | 0.747
COc1ccccc1-n1c(-c2ccc3ccccc3c2)csc1=NC(=O)c1ccccc1 | 0.204
CCNC(=O)Nc1ccc(N(C)c2ccnc(NC3CC3)n2)cc1 | 0.803
O=C(Nc1ccc(-c2nc3ccccc3[nH]2)cc1)c1ccc(Cl)c([N+](=O)[O-])c1 | 0.802
N=C(N)NN=CC(=O)Nc1ccc(C(F)(F)F)cc1 | 0.932
COc1ccc(C[C@H]2NC[C@H](O)[C@H]2OC(C)=O)cc1 [ANISOMYCIN] | 0.138
Cc1cc(N2CCC(NS(=O)(=O)c3cccc4cccnc34)CC2)nc(Nc2cccc(C#N)c2)n1 | 0.748
Cc1cc(N/N=C/c2ccccc2[N+](=O)[O-])c2cc(F)ccc2n1 | 0.665
Nc1nc(N)c2cc(S(=O)(=O)c3ccc4ccccc4c3)ccc2n1 | 0.0368
CC1(C)CCC(C)(C)c2c1ccc(C1CCN(CCCCNC(=O)c3ccc(-c4ccc(C#N)cc4)cc3)CC1)c2OCC(N)=O | 0.421
COc1cc2c(cc1OCCN1CCC(N)CC1)N(C(=O)/C=C/c1ccccc1Cl)CC2 | 1.12
C[C@H](Cc1ccc(OCCCCCCOc2ccccc2)cc1)NC[C@@H](O)c1cc(Br)no1 | 0.883
Nc1nonc1-c1nc2c(-c3cccc(Cl)c3)nccc2n1CCCNC(=O)Cc1ccc(Cl)cc1 | 0.268
CCCCCCCNc1cc(C)nc2ccc(OC)cc12 | 0.671
N=C(N)NC(=O)Nc1cc(Cl)c(F)c(Cl)c1 | 0.635
O=C(Nc1cccc(-c2ccc(-c3nc4ccccc4[nH]3)cc2)c1)Nc1ccc2c(c1)OCO2 | 0.671
CN1CCN(C(C(=O)NCc2cc(Cl)cc(Cl)c2)c2ccc(Nc3cccc(C(F)(F)F)c3)cc2)CC1 (configuration not stated) | 1.12
CCN(CCCN1CCCCC1)c1cc(C)nc(Nc2ccc(Br)cc2F)n1 | 0.548
